PubChem BioAssay AID1117354 (Cheminformatics & Chemogenomics Research Group (CCRG), …, 2015)
Activity calls are given as the source filed them. The rule behind the calls is not given here.

Each molecule was assayed against Tyrosine-protein kinase JAK2 (Homo sapiens) (UniProt O60674) (assay: primary HTS for Janus kinase 2 inhibitors, biochemical, Homo sapiens, LANCE Ultra TR-FRET detection, NCGC Pharmaceutical Collection (AID 1117354)). Details: LANCE Ultra TR-FRET kinase assay, at 20 µM (top of the series).
Tyrosine-protein kinase JAK2 (Homo sapiens), sequence (O60674 whole entry, looked up): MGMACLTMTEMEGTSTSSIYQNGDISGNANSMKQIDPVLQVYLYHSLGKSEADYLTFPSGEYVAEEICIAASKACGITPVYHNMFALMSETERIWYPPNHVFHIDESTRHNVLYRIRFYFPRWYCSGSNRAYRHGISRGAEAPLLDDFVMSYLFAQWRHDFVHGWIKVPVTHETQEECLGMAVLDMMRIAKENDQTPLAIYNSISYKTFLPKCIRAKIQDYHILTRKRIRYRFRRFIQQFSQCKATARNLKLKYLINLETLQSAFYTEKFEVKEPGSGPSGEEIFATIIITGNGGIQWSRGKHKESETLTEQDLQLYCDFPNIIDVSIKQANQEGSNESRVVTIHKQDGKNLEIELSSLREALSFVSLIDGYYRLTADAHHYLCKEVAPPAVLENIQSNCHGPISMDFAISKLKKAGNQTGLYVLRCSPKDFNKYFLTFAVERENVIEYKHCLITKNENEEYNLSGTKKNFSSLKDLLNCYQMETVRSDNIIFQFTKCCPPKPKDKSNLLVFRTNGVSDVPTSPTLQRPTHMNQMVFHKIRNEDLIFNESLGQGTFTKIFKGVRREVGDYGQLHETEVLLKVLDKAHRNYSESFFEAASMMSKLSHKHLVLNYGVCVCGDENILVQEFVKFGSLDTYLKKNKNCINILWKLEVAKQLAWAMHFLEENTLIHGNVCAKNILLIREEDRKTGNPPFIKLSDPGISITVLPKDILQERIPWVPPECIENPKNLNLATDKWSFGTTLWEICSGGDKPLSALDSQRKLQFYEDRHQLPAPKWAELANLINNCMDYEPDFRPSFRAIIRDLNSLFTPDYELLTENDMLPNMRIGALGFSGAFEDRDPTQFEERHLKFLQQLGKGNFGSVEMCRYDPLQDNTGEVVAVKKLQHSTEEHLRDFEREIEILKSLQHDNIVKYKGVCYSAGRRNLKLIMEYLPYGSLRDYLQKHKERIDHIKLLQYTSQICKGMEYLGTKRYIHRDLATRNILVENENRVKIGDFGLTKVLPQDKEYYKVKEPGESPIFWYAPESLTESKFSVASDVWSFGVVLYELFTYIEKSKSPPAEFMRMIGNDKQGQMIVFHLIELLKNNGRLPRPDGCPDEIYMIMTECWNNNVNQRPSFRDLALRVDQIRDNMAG
For `Cc1cc2c(C(C)C)c(O)c(O)c(C=O)c2c(O)c1-c1c(C)cc2c(C(C)C)c(O)c(O)c(C=O)c2c1O`, the inhibition was -0.85% (inactive). `CC[C@]1(O)C[C@H]2CN(CCc3c([nH]c4ccccc34)[C@@](C(=O)OC)(c3cc4c(cc3OC)N(C=O)[C@H]3[C@@](O)(C(=O)OC)[C@H](OC(C)=O)[C@]5(CC)C=CCN6CC[C@]43[C@@H]65)C2)C1` was tested, and the inhibition was 9% (inactive). `CC[C@]1(O)C[C@@H]2CN(CCc3c([nH]c4ccccc34)[C@@](C(=O)OC)(c3cc4c(cc3OC)N(C)[C@H]3[C@@](O)(C(=O)OC)[C@H](OC(C)=O)[C@]5(CC)C=CCN6CC[C@]43[C@@H]65)C2)C1` was tested, and the inhibition was 5.49% (inactive). In the case of `CC[C@@]1(O)C(=O)OCc2c1cc1n(c2=O)Cc2c-1nc1ccccc1c2/C=N/OC(C)(C)C`, the inhibition is reported as 12.1% (inactive). For `COC(=O)c1nc(Cl)c(Cl)nc1N`, the inhibition was -6.75% (inactive). `CN1CC[C@H](c2c(O)cc(O)c3c(=O)cc(-c4ccccc4Cl)oc23)[C@H](O)C1` gave an inhibition of 67.4%. `COc1c(C)c2c(c(O)c1C/C=C(\C)CCC(=O)OCCN1CCOCC1)C(=O)OC2` was tested, and the inhibition was 8.22% (inactive). With `CC(C)(C)C(=O)OCOP(=O)(COCCn1cnc2c(N)ncnc21)OCOC(=O)C(C)(C)C` the inhibition was -9.81% (inactive). For `CCCCC1C(=O)N(c2ccccc2)N(c2ccc(O)cc2)C1=O` (stereo not drawn), the inhibition was -4.57% (inactive). `CCCCCCCCCCCCCCCCCCNC(=O)OC1CCN(C(=O)OC[C@H](COC(=O)N(Cc2cccc[n+]2CC)C(=O)c2ccccc2OC)OC)CC1` was tested, and the inhibition was -2.67% (inactive). With `CCCSc1ccc2nc(NC(=O)OC)[nH]c2c1` the inhibition was -0.03% (inactive). For `O=C1c2c(O)ccc(O)c2C(=O)c2c(NCCNCCO)ccc(NCCNCCO)c21`, the inhibition was 43.4% (inactive). With `CC(C)C[C@H](NC(=O)[C@H](Cc1ccccc1)NC(=O)c1cnccn1)B(O)O` the inhibition was -3.33% (inactive). `Oc1c(Cl)cc(Cl)cc1Sc1cc(Cl)cc(Cl)c1O` was tested, and the inhibition was -0.83% (inactive). `CC(C)C[C@H](NC(=O)[C@H](CCc1ccccc1)NC(=O)CN1CCOCC1)C(=O)N[C@@H](Cc1ccccc1)C(=O)N[C@@H](CC(C)C)C(=O)[C@@]1(C)CO1` was tested, and the inhibition was 5.34% (inactive). In the case of `Oc1c(I)cc(I)c2cccnc12`, the inhibition is reported as -10.5% (inactive). In the case of `COc1ccc2cc1Oc1ccc(cc1)C[C@H]1c3c(cc4c(c3Oc3cc5c(cc3OC)CCN(C)[C@@H]5C2)OCO4)CCN1C`, the inhibition is reported as 17.9% (inactive). With `COC(=O)Nc1nc2ccc(S(=O)c3ccccc3)cc2[nH]1` (stereo not drawn) the inhibition was -7.42% (inactive). In the case of `COc1cc([C@@H]2c3cc4c(cc3[C@H](O)[C@H]3COC(=O)[C@H]23)OCO4)cc(OC)c1OC`, the inhibition is reported as 7.37% (inactive). With `Cc1ccccc1C(=O)Nc1ccc(C(=O)N2CCCC(N(C)C)c3ccccc32)cc1` (stereo not drawn) the inhibition was 16% (inactive). In the case of `CCCOc1ccc2nc(NC(=O)OC)[nH]c2c1`, the inhibition is reported as -4.4% (inactive). In the case of `Cc1nc(Nc2ncc(C(=O)Nc3c(C)cccc3Cl)s2)cc(N2CCN(CCO)CC2)n1`, the inhibition is reported as 98.4%. In the case of `Cc1nc2ccc(CN(C)c3ccc(C(=O)N[C@@H](CCC(=O)O)C(=O)O)s3)cc2c(=O)[nH]1`, the inhibition is reported as 14.6% (inactive). With `Nc1nc(=S)c2[nH]cnc2[nH]1` the inhibition was 10.3% (inactive). For `CCC1=C[C@@H]2CN(C1)Cc1c([nH]c3ccccc13)[C@@](C(=O)OC)(c1cc3c(cc1OC)N(C)[C@H]1[C@@](O)(C(=O)OC)[C@H](OC(C)=O)[C@]4(CC)C=CCN5CC[C@]31[C@@H]54)C2`, the inhibition was 1.76% (inactive). With `CCN(CC)CCNc1ccc(CO)c2sc3ccccc3c(=O)c12` the inhibition was 33.1% (inactive). For `CCC(C)n1ncn(-c2ccc(N3CCN(c4ccc(OC[C@H]5CO[C@](Cn6cncn6)(c6ccc(Cl)cc6Cl)O5)cc4)CC3)cc2)c1=O` (stereo partly drawn), the inhibition was 10.5% (inactive). `CC[C@@H]([C@H](C)O)n1ncn(-c2ccc(N3CCN(c4ccc(OC[C@@H]5CO[C@@](Cn6cncn6)(c6ccc(F)cc6F)C5)cc4)CC3)cc2)c1=O` was tested, and the inhibition was 10.5% (inactive). `COc1ccc(-c2ccc3cc(C(=O)O)ccc3c2)cc1C12CC3CC(CC(C3)C1)C2` gave an inhibition of 97.7%. `O=c1[nH]c(=O)n([C@H]2C[C@H](O)[C@@H](CO)O2)cc1F` was tested, and the inhibition was -18.6% (inactive). `COc1ccc(-c2nc3ccc(C4=NNC(=O)CC4C)cc3[nH]2)cc1` (stereo not drawn) was tested, and the inhibition was -0.61% (inactive). With `COC(=O)Nc1nc2ccc(C(=O)C3CC3)cc2[nH]1` the inhibition was 21.4% (inactive). `CCCCCCCCCCCCCCCC[n+]1ccccc1` was tested, and the inhibition was 53.6%. With `O=c1c(-c2ccccc2)c1-c1ccccc1` the inhibition was -9.18% (inactive). In the case of `NC(=NCCCCCCN=C(N)/N=C(\N)Nc1ccc(Cl)cc1)/N=C(\N)Nc1ccc(Cl)cc1`, the inhibition is reported as 0.31% (inactive). With `Cc1cc(=O)c2c(O)c3c(O)cc(=O)c4c3c3c(cc(O)c1c23)C(C)(C)C=4O` the inhibition was 32.9% (inactive). In the case of `S=c1nc[nH]c2nc[nH]c12`, the inhibition is reported as 1.43% (inactive). In the case of `[O-][n+]1ccccc1SSc1cccc[n+]1[O-]`, the inhibition is reported as -17.3% (inactive). For `CCCCCCNC(=O)n1cc(F)c(=O)[nH]c1=O`, the inhibition was -3.52% (inactive). In the case of `O=C(NOCC1CC1)c1ccc(F)c(F)c1Nc1ccc(I)cc1Cl`, the inhibition is reported as 13.2% (inactive). In the case of `Cc1cc(C2CCCCC2)n(O)c(=O)c1`, the inhibition is reported as -9.21% (inactive). For `O=[N+]([O-])c1ccc(O)c2ncccc12`, the inhibition was 1.93% (inactive). For `COC(=O)Nc1nc2ccc(C(=O)c3cccs3)cc2[nH]1`, the inhibition was 12.9% (inactive). With `Oc1c(Cl)cc(Cl)c2cccnc12` the inhibition was -13.9% (inactive). `COc1cccc2c1C(=O)c1c(O)c3c(c(O)c1C2=O)C[C@@](O)(C(C)=O)C[C@@H]3O[C@H]1C[C@H](N)[C@H](O)[C@H](C)O1` was tested, and the inhibition was 7.94% (inactive). For `CCCCc1oc2ccccc2c1C(=O)c1cc(I)c(OCCN(CC)CC)c(I)c1`, the inhibition was 16.2% (inactive). In the case of `COCc1c(C(C)C)nc(C(C)C)c(/C=C/[C@@H](O)C[C@@H](O)CC(=O)O)c1-c1ccc(F)cc1`, the inhibition is reported as -8.56% (inactive). For `COC(=O)Nc1nc2ccc(C(=O)c3ccccc3)cc2[nH]1`, the inhibition was 25.8% (inactive). `COC(=O)[C@H]1[C@H]2C[C@@H]3c4[nH]c5cc(OC)ccc5c4CCN3C[C@H]2C[C@@H](OC(=O)/C=C/c2ccc(O)c(OC)c2)[C@@H]1OC` was tested, and the inhibition was 9.23% (inactive). With `Cn1cnc([N+](=O)[O-])c1Sc1ncnc2nc[nH]c12` the inhibition was -15.7% (inactive). With `C=C(C)[C@H]1Cc2c(ccc3c2O[C@@H]2COc4cc(OC)c(OC)cc4[C@@H]2C3=O)O1` the inhibition was 4.93% (inactive). With `CC(=O)Oc1ccc(C2(c3ccc(OC(C)=O)cc3)Oc3ccccc3NC2=O)cc1` the inhibition was 7% (inactive). `CC(C)(C)C1CCC(CC2=C(O)c3ccccc3C(=O)C2=O)CC1` (stereo not drawn) was tested, and the inhibition was -11.2% (inactive). For `CC(=O)[C@]1(O)Cc2c(O)c3c(c(O)c2[C@@H](O[C@H]2C[C@H](N)[C@H](O)[C@H](C)O2)C1)C(=O)c1ccccc1C3=O`, the inhibition was 29.1% (inactive). For `COC(=O)Nc1nc2ccc(Sc3ccccc3)cc2[nH]1`, the inhibition was -7.45% (inactive). `O=C(CCCCCCC(=O)Nc1ccccc1)NO` was tested, and the inhibition was -17.1% (inactive). Work on `Cc1ccc(Nc2nccc(N(C)c3ccc4c(C)n(C)nc4c3)n2)cc1S(N)(=O)=O` yielded an inhibition of 81.8%. In the case of `COc1cc(NCc2ccc3nc(N)nc(N)c3c2C)cc(OC)c1OC`, the inhibition is reported as 26.2% (inactive). `CNC(=O)c1cc(Oc2ccc(NC(=O)Nc3ccc(Cl)c(C(F)(F)F)c3)cc2)ccn1` gave an inhibition of 63.2%. In the case of `O=c1[nH]c(=O)n([C@H]2C[C@H](O)[C@@H](CO)O2)cc1C(F)(F)F`, the inhibition is reported as 14.7% (inactive). For `CSc1ccc2c(c1)C(N1CCN(C)CC1)Cc1ccccc1S2` (stereo not drawn), the inhibition was -4.22% (inactive). `O=C(CCl)c1ccc(Cl)cc1Cl` was tested, and the inhibition was -17.1% (inactive). For `Cc1ccc2nc(N)[nH]c(=O)c2c1Sc1ccncc1`, the inhibition was 16.7% (inactive). For `Nc1ccc2cc3ccc(N)cc3nc2c1`, the inhibition was -6.54% (inactive). `CN(C)c1ccc2nc3ccc(=[N+](C)C)cc-3sc2c1` was tested, and the inhibition was 13.3% (inactive). For `Cc1ccc([N+](=O)[O-])[c]2c1[O][Hg]2`, the inhibition was 36.9% (inactive). In the case of `CCc1nc(N)nc(N)c1-c1ccc(Cl)cc1`, the inhibition is reported as -6.66% (inactive). With `COc1cc(-c2ccc(=O)[nH]n2)ccc1OC(F)F` the inhibition was -10.1% (inactive). `Cc1nc(N)nc(N)c1-c1ccc(Cl)c(Cl)c1` was tested, and the inhibition was -2.13% (inactive). For `Cc1cc(C)c(/C=C2\C(=O)Nc3ccccc32)[nH]1`, the inhibition was 68.5%. With `COc1cc2nc(N3CCN(C(=O)c4ccco4)CC3)nc(N)c2cc1OC` the inhibition was -17.8% (inactive). `CNC(=O)c1ccccc1Sc1ccc2c(/C=C/c3ccccn3)n[nH]c2c1` showed an inhibition of 94.5%. With `CCN(CC)CCOc1ccc(/C(=C(\Cl)c2ccccc2)c2ccccc2)cc1` the inhibition was -4.05% (inactive). For `COc1cc2c(c(OC)c1OC)-c1ccc(OC)c(=O)cc1[C@@H](NC(C)=O)CC2`, the inhibition was -10.4% (inactive). With `O=C(Nc1ccc([N+](=O)[O-])cc1Cl)c1cc(Cl)ccc1O` the inhibition was 16.5% (inactive). With `C[C@@]12C(=O)OC(=O)[C@]1(C)C1CCC2O1` the inhibition was -0.89% (inactive). With `Cc1cc(O)c2ccccc2c1O` the inhibition was 19.2% (inactive). `CCN(CC)CCNC(=O)c1c(C)[nH]c(/C=C2\C(=O)Nc3ccc(F)cc32)c1C` showed an inhibition of 97.3%. `C=CC(=O)Nc1cc2c(Nc3ccc(F)c(Cl)c3)ncnc2cc1OCCCN1CCOCC1` was tested, and the inhibition was 68.2%. With `CCCN(CCC)C(=O)C(CCC(=O)OCCCN1CCN(CCOC(=O)Cc2c(C)n(C(=O)c3ccc(Cl)cc3)c3ccc(OC)cc23)CC1)NC(=O)c1ccccc1` (stereo not drawn) the inhibition was 12.5% (inactive). With `CCCCCCCCCCCCCC[N+](C)(C)C` the inhibition was -1.09% (inactive). `O=C(O)c1ccc(-n2nc(-c3ccccc3O)nc2-c2ccccc2O)cc1` was tested, and the inhibition was 44.5% (inactive). For `C[n+]1c2cc(N)ccc2cc2ccc(N)cc21` (tested in a mixture with another compound), the inhibition was 8.06% (inactive).
